# Reference: ChEMBL document CHEMBL1143809, “New bis-N9-(methylphenylmethyl)purine derivatives: synthesis and antitumor activity” (2007)
# Experiments:
# Type in all cases: functional
# HOP-62 = assay: Growth inhibition of human HOP62 cells after 48 hrs by SRB protein assay; settings: HOP-62, 48 h
# PC-3 = assay: Growth inhibition of human PC3 cells after 48 hrs by SRB protein assay; settings: PC-3, 48 h
# NCI-H460 = assay: Growth inhibition of human NCL-H460 cells after 48 hrs by SRB protein assay; settings: NCI-H460, 48 h
# MDA-MB-231 = assay: Growth inhibition of human MDA-MB-231 cells after 48 hrs by SRB protein assay; settings: MDA-MB-231, 48 h
# UACC-62 = assay: Growth inhibition of human UACC62 cells after 48 hrs by SRB protein assay; settings: UACC-62, 48 h
# [1] = Growth inhibition of human NCL-H322M cells after 48 hrs by SRB protein assay
# HT-29 = assay: Growth inhibition of human HT29 cells after 48 hrs by SRB protein assay; settings: HT-29, 48 h
# CAKI-1 = assay: Growth inhibition of human CAKI1 cells after 48 hrs by SRB protein assay; settings: CAKI-1, 48 h
# MOLT-4 = assay: Growth inhibition of human MOLT4 cells after 48 hrs by SRB protein assay; settings: MOLT-4, 48 h
# SK-MEL-5 = assay: Growth inhibition of human SK-MEL-5 cells after 48 hrs by SRB protein assay; settings: SK-MEL-5, 48 h
# SF-539 = assay: Growth inhibition of human SF539 cells after 48 hrs by SRB protein assay; settings: SF-539, 48 h
# MCF7 [2] = assay: Anticancer activity against human MCF7 cells assessed as growth at 100 uM after 48 hrs by SRB protein assay relative to control; settings: MCF7, 48 h, read-out: Activity
# SN12C = assay: Growth inhibition of human SN12C cells after 48 hrs by SRB protein assay
# [3] = Growth inhibition of human LOX MIVI cells after 48 hrs by SRB protein assay
# SNB-19 = assay: Growth inhibition of human SNB19 cells after 48 hrs by SRB protein assay; settings: SNB-19, 48 h
# [4] = Growth inhibition of human NCL-H23 cells after 48 hrs by SRB protein assay; settings: NCL-H23, 48 h
# 786-0 = assay: Growth inhibition of human 786-0 cells after 48 hrs by SRB protein assay; settings: 786-0, 48 h
# U-251 = assay: Growth inhibition of human U251 cells after 48 hrs by SRB protein assay; settings: U-251, 48 h
# A549 = assay: Growth inhibition of human A549 cells after 48 hrs by SRB protein assay; settings: A549, 48 h
# T47D = assay: Growth inhibition of human T47D cells after 48 hrs by SRB protein assay
# M14 = assay: Growth inhibition of human M14 cells after 48 hrs by SRB protein assay; settings: M14, 48 h
# EKVX = assay: Growth inhibition of human EKVX cells after 48 hrs by SRB protein assay
# UACC-257 = assay: Growth inhibition of human UACC257 cells after 48 hrs by SRB protein assay; settings: UACC-257, 48 h
# KM12 = assay: Growth inhibition of human KM12 cells after 48 hrs by SRB protein assay; settings: KM12, 48 h
# K562 = assay: Growth inhibition of human K562 cells after 48 hrs by SRB protein assay; settings: K562, 48 h
# [5] = Growth inhibition of human NCL-H522 cells after 48 hrs by SRB protein assay; settings: NCL-H522, 48 h
# DU-145 = assay: Growth inhibition of human DU145 cells after 48 hrs by SRB protein assay; settings: DU-145, 48 h
# HCT-15 = assay: Growth inhibition of human HCT15 cells after 48 hrs by SRB protein assay; settings: HCT-15, 48 h
# [6] = Growth inhibition of human NCL-H226 cells after 48 hrs by SRB protein assay; settings: NCL-H226, 48 h
# MCF7 [7] = assay: Growth inhibition of human MCF7 cells after 48 hrs by SRB protein assay; settings: MCF7, 48 h
# TK-10 = assay: Growth inhibition of human TK10 cells after 48 hrs by SRB protein assay; settings: TK-10, 48 h
# OVCAR-8 = assay: Growth inhibition of human OVCAR8 cells after 48 hrs by SRB protein assay; settings: OVCAR-8, 48 h
# BT-549 = assay: Growth inhibition of human BT549 cells after 48 hrs by SRB protein assay; settings: BT-549, 48 h
# SF-268 = assay: Anticancer activity against human SF268 cells assessed as growth at 100 uM after 48 hrs by SRB protein assay relative to control; settings: SF-268, 48 h, read-out: Activity
# [8] = read-out: LC50 (the source's name)
structure (smiles),measurement,setting,value
Clc1nc(Cl)c2ncn(Cc3cccc(Cn4cnc5c(Cl)nc(Cl)nc54)c3)c2n1,GI50,HOP-62,5.01 µM
same,LC50,HOP-62,51.3 µM
same,TGI,HOP-62,17.8 µM
same,GI50,PC-3,3.98 µM
same,TGI,PC-3,13.5 µM
same,CC50,PC-3; [8],40.7 µM
same,GI50,NCI-H460,3.71 µM
same,TGI,NCI-H460,13.5 µM
same,CC50,NCI-H460; [8],58.9 µM
same,GI50,MDA-MB-231,2.63 µM
same,LC50 (50% lethal concentration),MDA-MB-231,30.2 µM
same,TGI,MDA-MB-231,7.07 µM
same,GI50,UACC-62,2.39 µM
same,LC50 (concentration killing 50% of cells),UACC-62,22.4 µM
same,TGI,UACC-62,5.88 µM
same,GI50,[1],14.1 µM
same,TGI,[1],27.5 µM
same,CC50,[1]; [8],52.5 µM
same,GI50,HT-29,4.46 µM
same,LC50,HT-29,> 100 µM
same,TGI,HT-29,> 100 µM
same,GI50,CAKI-1,12 µM
same,TGI,CAKI-1,26.3 µM
same,CC50,CAKI-1; [8],57.5 µM
same,GI50,MOLT-4,3.46 µM
same,LC50,MOLT-4,> 100 µM
same,TGI,MOLT-4,13.8 µM
same,GI50,SK-MEL-5,2.45 µM
same,LC50,SK-MEL-5,22.4 µM
same,TGI,SK-MEL-5,5.88 µM
same,GI50,SF-539,1.38 µM
same,LC50,SF-539,7.07 µM
same,TGI,SF-539,3.16 µM
same,growth at 100 µM,MCF7 [2],0%
same,GI50,SN12C,4.67 µM
same,LC50,SN12C,60.2 µM
same,TGI,SN12C,18.2 µM
same,GI50,[3],2.23 µM
same,LC50,[3],21.9 µM
same,TGI,[3],5.62 µM
same,GI50,SNB-19,3.02 µM
same,TGI,SNB-19,13.8 µM
same,CC50,SNB-19; [8],60.2 µM
same,GI50,[4],8.51 µM
same,LC50,[4],52.5 µM
same,TGI,[4],21.9 µM
same,GI50,786-0,12.3 µM
same,TGI,786-0,26.3 µM
same,CC50,786-0; [8],57.5 µM
same,GI50,U-251,3.89 µM
same,TGI,U-251,13.8 µM
same,CC50,U-251; [8],38.9 µM
same,GI50,A549,11.2 µM
same,LC50,A549,61.6 µM
same,TGI,A549,26.3 µM
same,GI50,T47D,3.02 µM
same,LC50,T47D,> 100 µM
same,TGI,T47D,8.51 µM
same,GI50,M14,2.75 µM
same,LC50,M14,33.9 µM
same,TGI,M14,7.58 µM
same,GI50,EKVX,3.09 µM
same,LC50,EKVX,41.7 µM
same,TGI,EKVX,11 µM
same,GI50,UACC-257,4.78 µM
same,TGI,UACC-257,17.4 µM
same,CC50,UACC-257; [8],56.2 µM
same,GI50,KM12,2.88 µM
same,LC50 (concentration killing 50% of cells),KM12,33.1 µM
same,TGI,KM12,8.91 µM
same,GI50,K562,3.09 µM
same,TGI,K562,17 µM
same,CC50,K562; [8],> 100 µM
same,GI50,[5],2.88 µM
same,LC50,[5],41.7 µM
same,TGI,[5],7.07 µM
same,GI50,DU-145,1.73 µM
same,TGI,DU-145,3.09 µM
same,CC50,DU-145; [8],5.62 µM
same,GI50,HCT-15,5.75 µM
same,LC50,HCT-15,74.1 µM
same,TGI,HCT-15,22.4 µM
same,GI50,[6],4.78 µM
same,LC50,[6],> 100 µM
same,TGI,[6],26.9 µM
same,GI50,MCF7 [7],3.63 µM
same,LC50,MCF7 [7],> 100 µM
same,TGI,MCF7 [7],37.1 µM
same,GI50,TK-10,2.45 µM
same,LC50 (50% lethal concentration),TK-10,26.9 µM
same,TGI,TK-10,7.24 µM
same,GI50,OVCAR-8,4.67 µM
same,LC50,OVCAR-8,72.4 µM
same,TGI,OVCAR-8,18.6 µM
same,GI50,BT-549,3.38 µM
same,TGI,BT-549,11 µM
same,CC50,BT-549; [8],34.7 µM
same,growth at 100 µM,SF-268,0%
